Measurements: patent publication US20100093692A1, “PIPERIDINYL-PIPERIDINE AND PIPERAZINYL-PIPERIDINE FOR USE IN THE TREATMENT OF DIABETES OR PAIN” (Schering Corporation Sechering-Plough Corporation, priority 2007, published 2010)
Structures can show the parent of a compound that is named as a salt.

Assays:
[1] = molecular target: T1, H3 receptors (Cavia porcellus, UniProt Q9JI35); assay: Guinea pig H3 receptor binding assay; conditions: guinea pig brain membranes; [3H]R-α-methyl histamine or [3H]Nα-methyl histamine; range stated for a group of compounds
T1 construct: The source of the H3 receptors in this experiment was guinea pig brain; from tissue; host or cells: guinea pig brain membranes
T1 sequence (Q9JI35 whole entry): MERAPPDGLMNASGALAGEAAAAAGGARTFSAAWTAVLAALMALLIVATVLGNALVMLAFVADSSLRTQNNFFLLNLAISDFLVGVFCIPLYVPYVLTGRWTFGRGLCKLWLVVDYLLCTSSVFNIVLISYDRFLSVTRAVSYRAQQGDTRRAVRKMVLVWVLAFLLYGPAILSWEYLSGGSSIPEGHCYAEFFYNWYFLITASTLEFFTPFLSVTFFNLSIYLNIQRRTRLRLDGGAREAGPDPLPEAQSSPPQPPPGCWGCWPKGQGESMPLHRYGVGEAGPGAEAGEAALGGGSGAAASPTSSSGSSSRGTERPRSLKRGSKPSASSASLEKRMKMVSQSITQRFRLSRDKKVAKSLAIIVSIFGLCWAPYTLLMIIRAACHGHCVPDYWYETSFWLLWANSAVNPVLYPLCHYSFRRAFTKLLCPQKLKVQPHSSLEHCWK
Procedure: The source of the H3 receptors in this experiment was guinea pig brain obtained from animals weighing 400-600 g. The brain tissue was homogenized with a solution of 50 mM Tris, pH 7.5. The final concentration of tissue in the homogenization buffer was 10% w/v. The homogenates were centrifuged at 1,000×g for 10 minutes in order to remove clumps of tissue and debris. The resulting supernatants were then centrifuged at 50,000×g for 20 minutes in order to sediment the membranes, which were then washed three times in homogenization buffer (50,000×g for 20 minutes each). The membranes were frozen and stored at −70° C. until needed.
All compounds to be tested were dissolved in DMSO and then diluted into the binding buffer (50 mM Tris, pH 7.5) such that the final concentration was 2 μg/mL with 0.1% DMSO. Membranes were then added (400 μg of protein) to the reaction tubes. The reaction was started by the addition of 3 nM [^3H]R-α-methyl histamine (8.8 Ci/mmol) or 3 nM [^3H]N^α-methyl histamine (80 Ci/mmol) and continued under incubation at 30° C. for 30 minutes. Bound ligand was separated from unbound ligand by filtration, and the amount of radioactive ligand bound to the membranes was quantitated by liquid scintillation spectrometry. All incubations were performed in duplicate and the standard error was always less than 10%. Compounds that inhibited more than 70% of the specific binding of radioactive ligand to the receptor were serially diluted to determine a Ki (nM).

[2] = molecular target: T2, human histamine H3 receptor (Homo sapiens, UniProt Q9Y5N1); assay: Human H3 receptor binding assay; conditions: HEK-293 membranes expressing human H3; 1 nM [3H]N-α-methylhistamine; n=4
T2 construct: The full-length human histamine H3 receptor was cloned by PCR; expressed in transfected cells
T2 sequence (Q9Y5N1 whole entry): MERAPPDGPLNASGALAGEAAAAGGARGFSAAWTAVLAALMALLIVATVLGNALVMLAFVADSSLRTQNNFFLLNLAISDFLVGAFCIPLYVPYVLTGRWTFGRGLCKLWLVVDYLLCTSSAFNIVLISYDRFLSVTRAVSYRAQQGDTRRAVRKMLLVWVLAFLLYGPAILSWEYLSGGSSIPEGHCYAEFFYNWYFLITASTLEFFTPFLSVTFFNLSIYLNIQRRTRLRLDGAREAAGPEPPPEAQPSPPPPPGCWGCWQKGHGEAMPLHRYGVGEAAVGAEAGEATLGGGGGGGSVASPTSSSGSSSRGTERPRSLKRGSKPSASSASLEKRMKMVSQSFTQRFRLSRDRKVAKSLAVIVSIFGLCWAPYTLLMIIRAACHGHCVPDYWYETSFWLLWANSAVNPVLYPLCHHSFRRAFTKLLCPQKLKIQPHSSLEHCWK
Procedure: The full-length human histamine H3 receptor was cloned by PCR from a human thalamus cDNA library, with primers derived from a public database, and inserted into the CMV promoter-driven expression vector pcDNA-3.1 (Invitrogen). HEK-293 human embryonic kidney cells (ATCC) were transfected with H3 receptor plasmid and stably expressing cells were selected with G-418. Cells were grown in Dulbecco's modified Eagle's medium/10% fetal calf serum containing high glucose, 25 mM Hepes, penicillin (100 U/ml), streptomycin (100 ug/ml), 2 mM glutamine, and 0.5 mg G-418/ml at 37° C. in a humidified atmosphere of 5% CO2. For membrane preparations, cells were harvested using aspirating media, replacing it with 5 mM EDTA/0.02% trypsin/Hank's balanced salt solution, followed by incubation at 37° C. for 5 to 10 minutes. […] Nonspecific binding was determined in the presence of 10^-5 M thioperamide. After a 30 minute incubation at 30° C., assay mixtures were filtered through 0.3% polyethylenimine-soaked GF/B glass fiber filters, which were then rinsed thrice with buffer, dried, impregnated with Meltilex wax scintillant, and counted. IC50 values were determined from curves fit to the data using a non-linear, least-squares, curve-fitting program and Ki values were determined using the method of Cheng and Prusoff.

[3] = test system: STZ-DIO Sprague-Dawley rats (T2DM); assay: In vivo effect on glucose and HbA1c in STZ-DIO diabetic rats; design: species or system rat; conditions: two weeks
Procedure: Seventy male DIO Sprague-Dawley rats were fed HFD (45% Kcal fat) for 3 months from weaning, and were given streptozotocin (STZ) intraperitoneally at 25 mg/kg to induce type 2 diabetes (T2DM). Forty four T2DM rats were chosen for the study two weeks after STZ injection (n=11 per group, with body weights between 632 and 838 g, non-fasting glucose between 226 and 426 mg/dl and HbA1c between 8.7% and 10.9%) and were given ad libitum access to pre-weighed 45% fat (kcal) HFD or Compound 287 (1.4, 2.9 mg/g in HFD) for two weeks. Body weight, non-fasting glucose and food intake were monitored daily. Body composition and HbA1c levels were monitored before and after the two-week study by the whole body magnetic resonance analyzer and Cholestech GDX analyzer (Hayward, Calif.), respectively. The STZ-DIO rats had elevated non-fasting glucose and HbA1c levels (non-fasting glucose were between 226 and 426 mg/dl; and HbA1c were between 8.7% and 10.9%) two weeks after STZ injection. The low dose of STZ caused a 48% reduction of plasma insulin levels, which was not sufficient to cause hyperglycemia in rats fed with chow diet. In contrast, this level of plasma insulin induced hyperglycemia in the face of insulin resistance induced by the HFD. […] The control STZ-DIO rats maintained non-fasting glucose levels above […] (+12 mg/dl), which led to a significant 0.96% increase in HbA1c over 14 days.

[4] = test system: STZ-induced type 2 diabetic mice; assay: In vivo effect on glucose levels in diabetic mice (western diet + low dose STZ); design: species or system mouse; conditions: 10 mg/kg/day in diet, four weeks; relative to control mice and mice treated with rosiglitazone (5 mg/kg/day in diet)
Procedure: Five-week-old male ICR mice were purchased from Taconic Farm (Germantown, N.Y.) and placed on a “western diet” containing 45% (kcal) fat from lard and 0.12% (w/w) cholesterol. After 3 weeks of feeding, the mice were injected once with low dose streptozocin (STZ, ip 80 mg/kg) to induce partial insulin deficiency. […] The diabetic mice were then placed in one of three groups: (1) a non-treated control group, (2) a group treated with rosiglitazone (5 mg/kg/day in diet); or (3) a group treated with Compound 446 (10/mg/kg/day in diet). All animals were treated for four weeks.

[5] = test system: diabetic Goto-Kakizaki rats; assay: In vivo effect on glucose levels in diabetic Goto-Kakizaki rats; design: species or system rat; conditions: 10 mg/kg/day in food chow, one week; untreated rats 34 mg/dl
Procedure: Adult, diabetic, Goto-Kakizaki rats (14 weeks old) were tested for non-fasting glucose levels using a glucometer. Rats with glucose levels between 130 and 370 mg/dl were randomized into treatment (N=10) and control (N=10) groups. Animals in the treatment group were administered Compound 446 in their food chow at a dose of 10 mg/kg/day. After one week of treatment, blood was collected via tail snip and the non-fasting glucose level was measured using a glucometer.

Structure (SMILES)	Ki [1]	further results
Nc1cc(CN2CCC(C(=O)N3CCC(C(=NO)c4ccccn4)CC3)CC2)ccn1 [Compound 237]	0.83 to 16 nM	
CO/N=C(/c1ccccn1)C1CCN(C(=O)C2CCN([C@H](C)c3ccnc(N)c3)CC2)CC1 [Compound 55]	0.83 to 16 nM	
CON=C(c1ccc(Cl)cc1)C1CCN(C(=O)C2CCN(Cc3ccnc(N)c3)CC2)CC1 [Compound 280]	0.83 to 16 nM	
Nc1cc(CN2CCC(C(=O)N3CCC(C(=O)c4ccccn4)CC3)CC2)ccn1 [Compound 30]	0.83 to 16 nM	
CO/N=C(/c1ccc(Cl)cc1)C1CCN(C(=O)C2CCN(Cc3ccncc3)CC2)CC1 [Compound 273]	0.83 to 16 nM	
CO/N=C(/c1ccccn1)C1CCN(C(=O)C2CCN(Cc3cnc(N)nc3)CC2)CC1 [Compound 287]		Ki [2]: 25 ± 4 nM; decrease in HbA1c level ([3]; 68 mg/kg/day, 2.9 mg/g in HFD, control 0.96% increase): 0.6%; change in non-fasting glucose ([3]; 68 mg/kg/day, 2.9 mg/g in HFD, control +12 mg/dl): -43 mg/dL; HbA1c levels over the two week study period ([3]; 1.4, 2.9 mg/g in HFD): dose-dependent reduction
CO/N=C(/c1ccccn1)C1CCN(C(=O)C2(F)CCN(Cc3ccnc(N)c3)CC2)CC1 [Compound 446]		HbA1C levels [4]: significantly reduced; non-fasting glucose levels [4]: significantly reduced; average reduction in non-fasting glucose levels [5]: 81 mg/dL
CO/N=C(/c1ccccn1)C1CCN(C(=O)C2CCN(Cc3ccnc(N)c3)CC2)CC1 [Compound 32]	0.83 to 16 nM	
CON=C(c1ccccn1)C1CCN(C(=O)C2CCN(Cc3ccnc(N)c3)CC2)CC1 [Compound 31]	0.83 to 16 nM	
CO/N=C(/c1ccccn1)C1CCN(C(=O)C2CCN([C@@H](C)c3ccnc(N)c3)CC2)CC1 [Compound 54]	0.83 to 16 nM	
CO/N=C(\c1ccccn1)C1CCN(C(=O)C2CCN([C@@H](C)c3ccnc(N)c3)CC2)CC1 [Compound 56]	0.83 to 16 nM	
CON=C(CC1CCN(C(=O)C2CCN(Cc3ccnc(N)c3)CC2)CC1)c1ccccn1 (as salt: maleate) [Compound 117]		melting point: 160 to 163 °C
CO/N=C(\c1ccccn1)C1CCN(C(=O)C2CCN(Cc3ccnc(N)c3)CC2)CC1 [Compound 33]	0.83 to 16 nM	
CO/N=C(/c1ccc(Cl)cc1)C1CCN(C(=O)C2CCN(Cc3ccnc(N)c3)CC2)CC1 [Compound 225]	0.83 to 16 nM	
